According to PubChem BioAssay AID328 (DTP/NCI, 2004):
Several values for one entry are separate records, joined by “and”; a condition that tells them apart may be missing. Equal entries are not always repeated. Inconclusive results and toxic doses are left out. How the source made its calls: active means survival T/C of 150% or more; inactive means T/C below 125% in these data.

System: BDF1 mice, P388 leukemia ip, median survival T/C
Assay: NCI In Vivo Anticancer Drug Screen. Data for tumor model P388 Leukemia (intraperitoneal) in B6D2F1 (BDF1) mice
Conditions: endpoint: median survival time, higher = longer survival
Summary of the method: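 Reported as T/C, where T is the survival measurement in dosed animals and C the same measurement in vehicle controls.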

[1] = dose: 100.0 mg/kg/injection, schedule: Q04DX003 (ip), vehicle: saline with Tween-80
[2] = dose: 200.0 mg/kg/injection, schedule: Q04DX003 (ip), vehicle: saline with Tween-80
[3] = dose: 400.0 mg/kg/injection, schedule: Q04DX003 (ip), vehicle: saline with Tween-80
[4] = dose: 100.0 mg/kg/injection, schedule: Q01DX001 (ip), vehicle: Klucel (hydroxypropylcellulose) (HPC)
[5] = dose: 200.0 mg/kg/injection, schedule: Q01DX001 (ip), vehicle: Klucel (hydroxypropylcellulose) (HPC)
[6] = dose: 400.0 mg/kg/injection, schedule: Q01DX001 (ip), vehicle: Klucel (hydroxypropylcellulose) (HPC)
[7] = dose: 50.0 mg/kg/injection, schedule: Q04DX003 (ip), vehicle: saline with Tween-80
[8] = dose: 100.0 mg/kg/injection, schedule: Q01DX009 (ip), vehicle: saline with Tween-80
[9] = dose: 100.0 mg/kg/injection, schedule: Q04DX003 (ip), vehicle: Klucel (hydroxypropylcellulose) (HPC)
[10] = dose: 200.0 mg/kg/injection, schedule: Q01DX009 (ip), vehicle: Klucel (hydroxypropylcellulose) (HPC)
[11] = dose: 200.0 mg/kg/injection, schedule: Q04DX003 (ip), vehicle: Klucel (hydroxypropylcellulose) (HPC)
[12] = dose: 400.0 mg/kg/injection, schedule: Q01DX009 (ip), vehicle: Klucel (hydroxypropylcellulose) (HPC)
[13] = dose: 400.0 mg/kg/injection, schedule: Q04DX003 (ip), vehicle: Klucel (hydroxypropylcellulose) (HPC)
[14] = dose: 25.0 mg/kg/injection, schedule: Q01DX009 (ip), vehicle: saline with Tween-80
[15] = dose: 50.0 mg/kg/injection, schedule: Q01DX009 (ip), vehicle: saline with Tween-80

Measured: T/C

COc1cccc2c1C(=O)c1c(O)c3c(c(O)c1C2=O)CC(O)(C(=O)CO)CC3OC1CC(N)C(O)C(C)O1 (stereo unspecified)
active: dose: 1.73 mg/kg/injection, schedule: Q01DX004 (ip), vehicle: water 234 % of control | dose: 2.88 mg/kg/injection, schedule: Q01DX004 (ip), vehicle: water 246 % of control | dose: 4.8 mg/kg/injection, schedule: Q01DX004 (ip), vehicle: water 283 % of control | dose: 6.48 mg/kg/injection, schedule: Q04DX003 (ip), vehicle: saline 158 % of control | dose: 10.8 mg/kg/injection, schedule: Q04DX003 (ip), vehicle: saline 169 % of control | dose: 18.0 mg/kg/injection, schedule: Q04DX003 (ip), vehicle: saline 187 % of control
inactive: dose: 30.0 mg/kg/injection, schedule: Q04DX003 (ip), vehicle: saline 116 % of control

CC(=O)Oc1cc(OCCCc2ccc(F)cc2)cc2c1-c1ccccc1CC2
inactive: [1] 99 % of control | [2] 89 % of control | [3] 97 % of control

Nc1nc(N)c(-c2ccccc2)c(C(=O)O)n1
inactive: [4] 109 % of control | [5] 118 % of control | [6] 113 % of control

c1ccc(SC23CC4CC(CC(C4)C2)C3)nc1
inactive: [4] 100 % of control | [5] 90 % of control | [6] 100 % of control

O=C(CBr)N1CCC2(CC1)SSC1(CCN(C(=O)CBr)CC1)S2
inactive: dose: 3.12 mg/kg/injection, schedule: Q01DX009 (ip), vehicle: saline with Tween-80 112 % of control | dose: 6.25 mg/kg/injection, schedule: Q01DX009 (ip), vehicle: saline with Tween-80 95 % of control and 111 % of control | dose: 10.0 mg/kg/injection, schedule: Q04DX003 (ip), vehicle: saline with Tween-80 122 % of control | dose: 20.0 mg/kg/injection, schedule: Q04DX003 (ip), vehicle: saline with Tween-80 120 % of control | dose: 25.0 mg/kg/injection, schedule: Q04DX003 (ip), vehicle: saline with Tween-80 123 % of control | dose: 40.0 mg/kg/injection, schedule: Q04DX003 (ip), vehicle: saline with Tween-80 114 % of control | [7] 113 % of control | [8] 112 % of control | [1] 118 % of control | [2] 102 % of control

Cc1ccc(NCC2(/N=C/c3ccccc3)OC(CO)C(O)C2O)cc1 (stereo unspecified)
inactive: [9] 119 % of control | [11] 107 % of control | [13] 123 % of control
active: [10] 150 % of control | [12] 158 % of control

O=C(Nc1cc(Cl)ccc1C(=O)O)c1cccc(C[n+]2ccccc2)c1
inactive: dose: 50.0 mg/kg/injection, schedule: Q01DX005 (ip), vehicle: saline with Tween-80 111 % of control | dose: 100.0 mg/kg/injection, schedule: Q01DX005 (ip), vehicle: saline with Tween-80 111 % of control

N#CC(CC(=O)OCc1ccccc1)NC(=O)OCc1ccccc1 (stereo unspecified)
inactive: [1] 95 % of control | [2] 90 % of control | [3] 100 % of control

CCCC1CC[N-]CC1.CCCC1CC[N-]CC1.[Cl][Pt+2][Cl]
inactive: [14] 122 % of control | dose: 44.0 mg/kg/injection, schedule: Q04DX003 (ip), vehicle: saline 96 % of control | dose: 50.0 mg/kg/injection, schedule: Q01DX009 (ip), vehicle: Klucel (hydroxypropylcellulose) (HPC) 118 % of control | dose: 66.0 mg/kg/injection, schedule: Q04DX003 (ip), vehicle: saline 116 % of control | dose: 100.0 mg/kg/injection, schedule: Q04DX003 (ip), vehicle: saline 112 % of control | dose: 132.0 mg/kg/injection, schedule: Q04DX003 (ip), vehicle: saline with Tween-80 100 % of control | [2] 95 % of control | dose: 300.0 mg/kg/injection, schedule: Q04DX003 (ip), vehicle: Klucel (hydroxypropylcellulose) (HPC) 100 % of control

Cn1c([N+](=O)[O-])cnc1CSC(=S)N1CCN(C(=S)SCc2ncc([N+](=O)[O-])n2C)CC1
inactive: [14] 106 % of control | [15] 103 % of control | [8] 103 % of control

NC(CCC(=O)NC(CSC(c1ccccc1)(c1ccccc1)c1ccc(F)cc1)C(=O)NCC(=O)O)C(=O)O (stereo unspecified)
active: dose: 266.0 mg/kg/injection, schedule: Q04DX003 (ip), vehicle: saline with Tween-80 159 % of control | dose: 266.0 mg/kg/injection, schedule: Q04DX003 (ip), vehicle: saline 181 % of control | [3] 231 % of control
inactive: dose: 115.0 mg/kg/injection, schedule: Q04DX003 (ip), vehicle: saline 118 % of control | dose: 177.0 mg/kg/injection, schedule: Q04DX003 (ip), vehicle: saline with Tween-80 118 % of control

CCCC1CC[N-]CC1.CCCC1CC[N-]CC1.[Cl][Pt+2]([Cl])([Cl])[Cl]
inactive: dose: 25.0 mg/kg/injection, schedule: Q04DX003 (ip), vehicle: saline 122 % of control | dose: 37.5 mg/kg/injection, schedule: Q04DX003 (ip), vehicle: saline with Tween-80 118 % of control | [15] 110 % of control
active: dose: 33.0 mg/kg/injection, schedule: Q04DX003 (ip), vehicle: saline with Tween-80 150 % of control | [7] 160 % of control

C(=N/NC1=NCCN1)/c1c2ccccc2c(/C=N\NC2=NCCN2)c2ccccc12
active: dose: 1.56 mg/kg/injection, schedule: Q04DX002 (ip), vehicle: saline 209 % of control | dose: 3.12 mg/kg/injection, schedule: Q04DX002 (ip), vehicle: saline 229 % of control | dose: 6.25 mg/kg/injection, schedule: Q04DX002 (ip), vehicle: saline 239 % of control | dose: 12.5 mg/kg/injection, schedule: Q04DX002 (ip), vehicle: saline 209 % of control | dose: 25.0 mg/kg/injection, schedule: Q04DX002 (ip), vehicle: saline 229 % of control | dose: 50.0 mg/kg/injection, schedule: Q04DX002 (ip), vehicle: saline 280 % of control

c1ccc2c[n+](CCCCCCCCCC[n+]3ccc4ccccc4c3)ccc2c1
inactive: dose: 1.0 mg/kg/injection, schedule: Q01DX009 (ip), vehicle: saline 104 % of control | dose: 2.0 mg/kg/injection, schedule: Q01DX009 (ip), vehicle: saline 113 % of control | dose: 2.5 mg/kg/injection, schedule: Q01DX009 (ip), vehicle: saline 110 % of control and 115 % of control | dose: 2.6 mg/kg/injection, schedule: Q01DX009 (ip), vehicle: saline 120 % of control | dose: 4.0 mg/kg/injection, schedule: Q01DX009 (ip), vehicle: saline 110 % of control | dose: 5.0 mg/kg/injection, schedule: Q01DX009 (ip), vehicle: saline 107 % of control | dose: 10.0 mg/kg/injection, schedule: Q01DX009 (ip), vehicle: saline 103 % of control and 112 % of control

OC(CCCCC(O)(c1ccccc1)c1ccccc1)(c1ccccc1)c1ccccc1
inactive: [4] 105 % of control | [5] 115 % of control | [6] 100 % of control

CC1(CBr)Oc2ccccc2O1
inactive: dose: 100.0 mg/kg/injection, schedule: Q01DX009 (ip), vehicle: Klucel (hydroxypropylcellulose) (HPC) 104 % of control | [9] 100 % of control | [10] 108 % of control | [11] 95 % of control | [12] 116 % of control | [13] 108 % of control

CCCCC(CC)COP(OCC(CC)CCCC)OCC(CC)CCCC (stereo unspecified)
inactive: [1] 109 % of control | [2] 100 % of control | [3] 118 % of control

COc1cc(C=O)cc(O)c1O
inactive: dose: 100.0 mg/kg/injection, schedule: Q01DX009 (ip), vehicle: saline sonified 95 % of control | dose: 176.0 mg/kg/injection, schedule: Q01DX009 (ip), vehicle: saline sonified 91 % of control | dose: 200.0 mg/kg/injection, schedule: Q01DX009 (ip), vehicle: saline sonified 120 % of control | dose: 264.0 mg/kg/injection, schedule: Q01DX009 (ip), vehicle: saline sonified 104 % of control
